This is an account of results in patent US9982265B2, “Inhibition of Bruton's tyrosine kinase (Btk) in the lung to treat severe lung inflammation and lung injury” (BOARD OF REGENTS, THE UNIVERSITY OF TEXAS SYSTEM, priority 2014, dated 2018).

Each structure is given as a SMILES string.

Assay [1] has as its system ApoE−/− mice fed Western Diet and exposed to SHS. The experiment in a line: Second hand smoke-induced emphysema/COPD model, PicroSirius Red and Hart's Elastin lung staining. In kind it is in vivo. The conditions noted are these: i.v. twice a week for 4 weeks, FIG. 18, 19. An excerpt:
Second Hand Smoke (SHS)-Induced COPD: Chronic exposure of mice to SHS induces abnormal pulmonary inflammation, airway remodeling and airspace enlargement due to destruction of alveolar walls which are characteristic of COPD (Pappas et al., supra). The present studies used both wild-type (WT) mice exposed to SHS and apolipoprotein E-(ApoE^−/−)-genetically deficient mice to study comorbidities of COPD. The targeted deletion of the apoE gene leads to severe hypercholesterolemia and spontaneous atherosclerosis. Lesions of ApoE^−/− mice resemble their human counterparts and develop over time from initial fatty streaks to complex lesions. (A high-fat, high-cholesterol diet can strongly accelerate the process.) Exposure of ApoE^−/− mice to SHS triggers characteristic decline of lung function that is seen in patients with COPD (Arunachalam, G. et al., supra). ApoE^−/− mice were fed a regular diet (control) and a high fat/cholesterol (1%) diet to shorten the time required for the development of atherosclerosis.
WT and ApoE^−/− diet groups were divided into equal subgroups: control and SHS. SHS groups were exposed to cigarette smoke for 4 h per day, 5 days a week, for up to 20 weeks. A Teague TE-10 microprocessor-controlled smoking machine was used to produce side stream mixed with a smaller amount of main stream smoke. […] TSP values were measured twice a week or as necessary. […]

Assay [2] deals with mice with anti-KC:KC IC ALI. Nature of the assay: anti-KC:KC IC model of ALI, Lung Injury Score. The assay is classed as in vivo. The following applies: Table 4; mice immunized with KC then given KC; score 0 to 2; means ± SD, 3 animals per group. How it is done: Anti-KC:KC immune complexes were prepared according to the protocol routinely used in our laboratory (28). Some mice received Btk specific siRNA intranasally. In other experiments the animals were treated i.n. with siRNA specific for Btk (see SEQ ID NOs:18-25) or MMP-9 (Invitrogen), both conjugated (T3™-MAX Conjugation Kit (Bioo Scientific Corporation, Austin, Tex.) to F(ab′)2 fragments of anti-mouse neutrophil antibody Ly-6G1A8). F(ab′)2 fragments alone or conjugated to control siRNA (SEQ ID NO's 26 and 27) (Invitrogen) served as controls of the treatment. Two or fourteen hours after i.n. administration of either immune complexes or saline, the animals were euthanized and samples collected for further evaluation. To study role of neutrophil FcγRIII receptors neutrophils were first depleted by i.p. injection of vinblastine (31) followed by adoptive transfer of cells deficient in FcγRIII receptors prepared as described below. […] Lung dysfunction was assessed by analysis of pulmonary histopathology.
Pulmonary Histopathology: Lungs were fixed in ExCellPlus (AMTS, Lodi, Calif.), embedded in paraffin, and sectioned at 5 μm. […] The images of stained sections were evaluated for the presence of alveolar exudate, infiltration of inflammatory cells, and interstitial thickening. Lung Injury Score (LIS) was assessed as described earlier (28). Most images were assessed at magnification of over 400×. […] At the minimum twenty sections from each group of mice were evaluated and 4 investigators participated in the analysis of 50 or more fields per group. According to recommendation of “An Official American Thoracic Society Workshop Report: Features and Measurements of Experimental Acute Lung Injury in Animals” (Am J Respir Cell Mol Biol 44 725-738, 2011) more than 20 high power fields were independently scored (as described above) and at least 50% of each field was occupied by lung alveoli. […]

Consider `C=CC(=O)N1CCC[C@@H](n2nc(-c3ccc(Oc4ccccc4)cc3)c3c(N)ncnc32)C1` [PCI-32765, 1-[(3R)-3-[4-amino-3-(4-phenoxyphenyl)-pyrazolo[3,4-d]pyrimidin-1-yl]piperidin-1-yl]prop-2-en-1-one], for which the “effect on symptoms of emphysema/COPD” value in assay [1] is listed as “dramatic protective effect”.
In the case of `CC[C@]1(O)C[C@@H]2CN(CCc3c([nH]c4ccccc34)[C@@](C(=O)OC)(c3cc4c(cc3OC)N(C)[C@H]3[C@@](O)(C(=O)OC)[C@H](OC(C)=O)[C@]5(CC)C=CCN6CC[C@]43[C@@H]65)C2)C1` [vinblastine], in assay [2], the “Lung Injury Score: Edema fluid” value turned out to be 0.033 ± 0.029, the “Lung Injury Score: Inflammatory infiltration” value stood at 0.167 ± 0.029 and the “Lung Injury Score: Thickening of alveolar septa” value is recorded as 0.133 ± 0.153.
